{
  "source": "BindingDB's records for PubMed 22948716",
  "about": "(Children's Hospital of Philadelphia)",
  "key": {"[1]": {"assay": "Inhibition of CENP-E in human SK-N-FI cells assessed as decrease in cell viability after 72 hrs by Cell-titer Glo reagent assay"}, "[2]": {"assay": "Inhibition of CENP-E in human RKO cells expressing BRAF mutant assessed as decrease in cell viability after 72 hrs by Cell-titer Glo reagent assay"}, "[3]": {"assay": "Inhibition of CENP-E in human SW620 cells expressing KRAS mutant assessed as decrease in cell viability after 72 hrs by Cell-titer Glo reagent assay"}, "[4]": {"assay": "Inhibition of CENP-E in human HCT-116 cells expressing KRAS mutant assessed as decrease in cell viability after 72 hrs by Cell-titer Glo reagent assay"}, "[5]": {"assay": "Inhibition of CENP-E in human SK-N-FI cells assessed as decrease in cell viability after 72 hrs in presence of ERK1 siRNA by Cell-titer Glo reagent assay"}},
  "data": [
    {"smiles": "CC(C)Oc1ccc(C(=O)N[C@H](CNC(=O)CN(C)C)Cc2ccc(-c3cn4cccc([C@H](C)O)c4n3)cc2)cc1Cl", "note": "[Gsk-923295a]", "values": [
      {"measurement": "IC50", "setting": "[1]", "value": 283, "unit": "nM"},
      {"measurement": "IC50", "setting": "[2]", "value": 56, "unit": "nM"},
      {"measurement": "IC50", "setting": "[3]", "value": 42, "unit": "nM"},
      {"measurement": "IC50", "setting": "[4]", "value": 52, "unit": "nM"},
      {"measurement": "IC50", "setting": "[5]", "value": 134, "unit": "nM"}
    ]}
  ]
}
